System: 299254-011-R-J1-PDC complex spheroid viability
Test: Anticancer human tumor 299254-011-R-J1-PDC patient-derived melanoma cell line growth inhibition [POLQ]
Details: for IC50: curve of first compound; for viability, T/C: stronger effect = lower value
In short: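 Complex spheroid viability model combining PDC tumour cells with endothelial (HUVEC) and MSC stromal cells. Novobiocin, ART-558 or RP6685 were tested singly and in combination with standard and investigational anticancer drugs. Each was titrated in half-log steps from near clinical Cmax, or from 10 microM where Cmax was unknown.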

[1] = second compound 0.0316 µM, first compound 0.0316 µM
[2] = second compound 0.0316 µM, first compound 0.1 µM
[3] = second compound 0.0316 µM, first compound 0.316 µM
[4] = second compound 0.0316 µM, first compound 1 µM
[5] = second compound 0.0316 µM, first compound 3.16 µM
[6] = second compound 0.0316 µM, first compound 10 µM
[7] = second compound 0.1 µM, first compound 0.0316 µM
[8] = second compound 0.1 µM, first compound 0.1 µM
[9] = second compound 0.1 µM, first compound 0.316 µM
[10] = second compound 0.1 µM, first compound 1 µM
[11] = second compound 0.1 µM, first compound 3.16 µM
[12] = second compound 0.1 µM, first compound 10 µM
[13] = second compound 0.316 µM, first compound 0.0316 µM
[14] = second compound 0.316 µM, first compound 0.1 µM
[15] = second compound 0.316 µM, first compound 0.316 µM
[16] = second compound 0.316 µM, first compound 1 µM
[17] = second compound 0.316 µM, first compound 3.16 µM
[18] = second compound 0.316 µM, first compound 10 µM
[19] = second compound 1 µM, first compound 0.0316 µM
[20] = second compound 1 µM, first compound 0.1 µM
[21] = second compound 1 µM, first compound 0.316 µM
[22] = second compound 1 µM, first compound 1 µM
[23] = second compound 1 µM, first compound 3.16 µM
[24] = second compound 1 µM, first compound 10 µM
[25] = second compound 3.16 µM, first compound 0.0316 µM
[26] = second compound 3.16 µM, first compound 0.1 µM
[27] = second compound 3.16 µM, first compound 0.316 µM
[28] = second compound 3.16 µM, first compound 1 µM
[29] = second compound 3.16 µM, first compound 3.16 µM
[30] = second compound 3.16 µM, first compound 10 µM
[31] = second compound 10 µM, first compound 0.0316 µM
[32] = second compound 10 µM, first compound 0.1 µM
[33] = second compound 10 µM, first compound 0.316 µM
[34] = second compound 10 µM, first compound 1 µM
[35] = second compound 10 µM, first compound 3.16 µM
[36] = second compound 10 µM, first compound 10 µM
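Note: spheroids exposed to drugs for one week before measurement.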
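Throughout, for viability, T/C: percent viability relative to DMSO vehicle control taken as 100%.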

C=CC(=O)N1CCN(c2nc(=O)n(-c3c(C)ccnc3C(C)C)c3nc(-c4c(O)cccc4F)c(F)cc23)C(C)C1 (stereo unspecified) + Nc1ccc(C#CCN(C(=O)Cc2ncc(C(F)(F)F)cc2C(F)(F)F)c2ccc(F)cc2)nn1
IC50 (second compound 0.0316 µM): > 10 µM
IC50 (second compound 0.1 µM): > 10 µM
IC50 (second compound 0.316 µM): > 10 µM
IC50 (second compound 1 µM): > 10 µM
IC50 (second compound 3.16 µM): > 10 µM
IC50 (second compound 10 µM): > 10 µM
viability, T/C [1]: 77.4%
viability, T/C [2]: 83.6%
viability, T/C [3]: 80%
viability, T/C [4]: 84.9%
viability, T/C [5]: 88.7%
viability, T/C [6]: 70.2%
viability, T/C [7]: 86.9%
viability, T/C [8]: 75.2%
viability, T/C [9]: 80.7%
viability, T/C [10]: 86.2%
viability, T/C [11]: 81.7%
viability, T/C [12]: 76.9%
viability, T/C [13]: 93.5%
viability, T/C [14]: 76.9%
viability, T/C [15]: 66.2%
viability, T/C [16]: 82.2%
viability, T/C [17]: 77.9%
viability, T/C [18]: 78.4%
viability, T/C [19]: 96.2%
viability, T/C [20]: 78.1%
viability, T/C [21]: 81.6%
viability, T/C [22]: 79.1%
viability, T/C [23]: 92.7%
viability, T/C [24]: 79%
viability, T/C [25]: 83.1%
viability, T/C [26]: 80%
viability, T/C [27]: 74.6%
viability, T/C [28]: 82.2%
viability, T/C [29]: 85.9%
viability, T/C [30]: 64.5%
viability, T/C [31]: 90.3%
viability, T/C [32]: 80.8%
viability, T/C [33]: 73.5%
viability, T/C [34]: 79.1%
viability, T/C [35]: 79.7%
viability, T/C [36]: 77.4%

CC1COCCN1c1cc(C2(O)CC3CCC(C2)O3)c2cnn(-c3ccn[nH]3)c2n1 (stereo unspecified) + Nc1ccc(C#CCN(C(=O)Cc2ncc(C(F)(F)F)cc2C(F)(F)F)c2ccc(F)cc2)nn1
IC50 (second compound 0.0316 µM): 0.168 µM
IC50 (second compound 0.1 µM): 0.173 µM
IC50 (second compound 0.316 µM): 0.13 µM
IC50 (second compound 1 µM): 0.138 µM
IC50 (second compound 3.16 µM): 0.0982 µM
IC50 (second compound 10 µM): 0.0971 µM
viability, T/C [1]: 90.4%
viability, T/C [2]: 61.6%
viability, T/C [3]: 34.3%
viability, T/C [4]: 27.1%
viability, T/C [5]: 15.7%
viability, T/C [6]: 11.1%
viability, T/C [7]: 87.4%
viability, T/C [8]: 55.3%
viability, T/C [9]: 42.5%
viability, T/C [10]: 29.8%
viability, T/C [11]: 15.6%
viability, T/C [12]: 13.2%
viability, T/C [13]: 80.6%
viability, T/C [14]: 49.6%
viability, T/C [15]: 39.5%
viability, T/C [16]: 26.6%
viability, T/C [17]: 18.5%
viability, T/C [18]: 11.5%
viability, T/C [19]: 91%
viability, T/C [20]: 55.7%
viability, T/C [21]: 35.2%
viability, T/C [22]: 21.5%
viability, T/C [23]: 16.5%
viability, T/C [24]: 12.9%
viability, T/C [25]: 79.1%
viability, T/C [26]: 49.5%
viability, T/C [27]: 31.8%
viability, T/C [28]: 23.1%
viability, T/C [29]: 18.9%
viability, T/C [30]: 14%
viability, T/C [31]: 73.8%
viability, T/C [32]: 48%
viability, T/C [33]: 35.8%
viability, T/C [34]: 22.1%
viability, T/C [35]: 18.4%
viability, T/C [36]: 15.5%

CCc1cc2c(N3CCc4c(cc(Cn5ccnc5)cc4-c4cn(C)nc4C(F)(F)F)C3=O)cc(C)nc2c(OC)n1 + Nc1ccc(C#CCN(C(=O)Cc2ncc(C(F)(F)F)cc2C(F)(F)F)c2ccc(F)cc2)nn1
IC50 (second compound 0.0316 µM): > 10 µM
IC50 (second compound 0.1 µM): > 10 µM
IC50 (second compound 0.316 µM): > 10 µM
IC50 (second compound 1 µM): > 10 µM
IC50 (second compound 3.16 µM): > 10 µM
IC50 (second compound 10 µM): > 10 µM
viability, T/C [1]: 94.3%
viability, T/C [2]: 99.2%
viability, T/C [3]: 107%
viability, T/C [4]: 98.5%
viability, T/C [5]: 86.8%
viability, T/C [6]: 58.7%
viability, T/C [7]: 90.3%
viability, T/C [8]: 103%
viability, T/C [9]: 117%
viability, T/C [10]: 101%
viability, T/C [11]: 92.9%
viability, T/C [12]: 76.1%
viability, T/C [13]: 114%
viability, T/C [14]: 110%
viability, T/C [15]: 100%
viability, T/C [16]: 94.4%
viability, T/C [17]: 95%
viability, T/C [18]: 63.1%
viability, T/C [19]: 107%
viability, T/C [20]: 95.7%
viability, T/C [21]: 111%
viability, T/C [22]: 101%
viability, T/C [23]: 89.4%
viability, T/C [24]: 70.9%
viability, T/C [25]: 116%
viability, T/C [26]: 106%
viability, T/C [27]: 91.7%
viability, T/C [28]: 86.2%
viability, T/C [29]: 90.6%
viability, T/C [30]: 55.1%
viability, T/C [31]: 98.7%
viability, T/C [32]: 96.5%
viability, T/C [33]: 90.9%
viability, T/C [34]: 85.3%
viability, T/C [35]: 68%
viability, T/C [36]: 61.1%

From PubChem BioAssay AID1963849 (Molecular Pharmacology Branch, DTP, NCI, 2024)
